Laboratory results taken from patent EP3597653A1, “CYCLIC INHIBITORS OF HEPATITIS B VIRUS” (IRBM S.P.A., priority 2018, dated 2020).

The compounds below were run on HBV (assay: HBV inhibition assay in HepAD38 cells (extracellular HBV DNA by direct qPCR)). Conditions: Hepatitis B virus, 8-point dose-response curve, 96 hours, read-out: HBV inh EC50.
Type: cell-based
Source text: HepAD38 cell line (Ladner et al., Antimicrob Agents Chemother, 1997, 41, 1715-20) was used for HBV inhibition assays. HepAD38 is a subclone, derived from Hepatoblastoma cell line HepG2 (ATCC® Number: HB-8065™), that expresses HBV genome under the control of a tetracycline-responsive promoter in a TET-OFF system: addition of tetracycline suppresses HBV replication, while its removal switches on the process allowing HBV viral particles release in the cell supernatant. HepAD38 cell line is maintained in DMEM/F12, supplemented with 10% of fetal bovine serum, 1% of glutamine, 1% of penicillin/streptomycin, 0.4 mg/ml G418 and 0,3 ug/ml tetracycline. For the HBV inhibition assay, doxycycline-free medium is used in order to allow virion production.
HBV inhibition activity in vitro was performed in 96 multiwell plates. During the initial (primary) screening compounds were first tested in triplicates at concentrations of 0.1µM, 0.5µM amd 1µM. For selected compounds, an 8-point dose-response curve can be obtained using 1:2 serial dilutions (starting from 2.5 µM, 1.25µM or 0.4 µM, depending on the degree of inhibition observed during the primary screening). From the dose-response curves, half maximal effective concentration (EC50) can be calculated (see also below).
In more detail, compounds - typically dissolved in DMSO stock solutions - are diluted to 2x the final desired concentration in 100 µl of the above medium (without doxycycline) and plated in three replicates in the 96-well plates.
Simultaneously, HepAD38 cells - extensively pre-washed in tetracycline-free medium in order to induce HBV production - are suspended at 2*10^4 cells in 100 µl of tetracycline-free medium and added to each well of the plate, to yield a final assay volume of 200 µl DMSO - used for stock solutions and compounds dilutions - which is always present in the assays at a final concentration of 0.5%.
Plates are then incubated 96 hours at 37°C and then subjected to cell viability assay in order to define compounds cytotoxicity and to extracellular HBV quantification in order to evaluate antiviral activity of compounds. Cytotoxicity is assessed by a commercial fluorescence assay that measures the metabolic activity of cells, directly related to cell viability (Cell Titer Blue, Promega). Anti-HBV activity was evaluated by quantification of extracellular HBV DNA with direct qPCR. In particular, supernatant was collected and centrifuged for cell debris clarification, viral DNA was extracted from virions by addition of lysis buffer (1 mM 1,4-dithiothreitol, 0.2% sodium dodecyl sulphate) and incubated at 95°C for 10 min. Samples were then diluted 1:40 and real time PCR amplification was performed with SYBR green assay (Power SYBR™ Green PCR Master Mix-Thermo Fisher Scientific) and specific HBV primer (HBV-DF:5'-[…]-3' (SEQ ID No. 1), HBV-DR:5'-[…]-3' (SEQ ID No. 2)).
All HBV inhibition or antiviral activity data are typically reported in percent (%) relative to a non-treated reference sample. Excel and Graphpad Prism programs are typically used for data elaboration and EC50 calculation.

Row | SMILES | EC50
1 | O=C(Nc1cc(F)c(F)c(F)c1)c1ccc2c(c1)S(=O)(=O)N[C@]1(N2)C(=O)Nc2ccccc21 (single isomer, unassigned) [Example E129] | > 1000 nM

Same assay, conditions: Hepatitis B virus, compound at 0.1 µM, 96 hours, relative to non-treated reference, read-out: Anti HBV Activity (conc µM)

Row | SMILES | inhibition at 0.1 µM
2 | Cc1cc2c(cc1C(=O)Nc1cc(F)c(F)c(F)c1)S(=O)(=O)N([C@H]1CC[C@H](O)CC1)C(=O)N2 [Example E122, trans-2-(4-hydroxycyclohexyl)-6-methyl-3-oxo-N-(3,4,5-trifluorophenyl)-3,4-dihydro-2H-benzo[e][1,2,4]thiadiazine-7-carboxamide 1,1-dioxide] | > 50%

Same assay, conditions: Hepatitis B virus, compound at 0.5 µM, 96 hours, relative to non-treated reference, read-out: Anti HBV Activity (conc µM)

Row | SMILES | inhibition at 0.5 µM
3 | C[C@H](O)C1=NS(=O)(=O)c2cc(C(=O)Nc3cc(F)c(F)c(F)c3)ccc2N1 [Example E25, (S)-3-(1-hydroxyethyl)-N-(3,4,5-trifluorophenyl)-4H-benzo[e][1,2,4]thiadiazine-7-carboxamide1,1-dioxide] | < 50%
4 | O=C(Nc1cc(F)c(F)c(F)c1)c1ccc2c(c1)S(=O)(=O)N(C1CC=C(CO)CC1)C(=O)N2 (stereo not shown) [Example E134, 2-(4-(hydroxymethyl)cyclohex-3-en-1-yl)-3-oxo-N-(3,4,5-trifluorophenyl)-3,4-dihydro-2H-benzo[e][1,2,4]thiadiazine-7-carboxamide 1,1-dioxide] | > 50%
5 | O=C(Nc1cc(F)c(F)c(F)c1)c1ccc2c(c1)S(=O)(=O)N(c1cccnc1)C(=O)N2 [Example E128, 3-oxo-2-(pyridin-3-yl)-N-(3,4,5-trifluorophenyl)-3,4-dihydro-2H-benzo[e][1,2,4]thiadiazine-7-carboxamide 1,1-dioxide] | < 50%
6 | O=C(Nc1cc(F)c(F)c(F)c1)c1ccc2c(c1)S(=O)(=O)N([C@H]1C[C@@H](O)C1)C(=O)N2 [Example E124, Cis-2-(3-hydroxycyclobutyl)-3-oxo-N-(3,4,5-trifluorophenyl)-3,4-dihydro-2H-benzo[e][1,2,4]thiadiazine-7-carboxamide 1,1-dioxide] | > 50%
7 | O=C(Nc1cc(F)c(F)c(F)c1)c1ccc2c(c1)S(=O)(=O)NC([C@@H](O)CO)N2 (stereo partly drawn) [Example E26, 3-((R)-1,2-dihydroxyethyl)-N-(3,4,5-trifluorophenyl)-3,4-dihydro-2H-benzo[e][1,2,4]thiadiazine-7-carboxamide 1,1-dioxide] | > 50%
8 | O=C(Nc1cc(F)c(F)c(F)c1)c1cnc2c(c1)S(=O)(=O)NCN2 [Example E93, N-(3,4,5-trifluorophenyl)-3,4-dihydro-2H-pyrido[2,3-e][1,2,4]thiadiazine-7-carboxamide 1,1-dioxide] | < 50%
9 | CN1C(C2CCNCC2)Nc2ccc(C(=O)Nc3cc(F)c(F)c(F)c3)cc2S1(=O)=O (stereo not shown) [Example E33, 2-methyl-3-(piperidin-4-yl)-N-(3,4,5-trifluorophenyl)-3,4-dihydro-2H-benzo[e][1,2,4]thiadiazine-7-carboxamide 1,1-dioxide] | < 50%
10 | O=C(Nc1cc(F)c(F)c(F)c1)c1ccc2c(c1)S(=O)(=O)N(C1CC1)CN2 [Example E60, 2-cyclopropyl-N-(3,4,5-trifluorophenyl)-3,4-dihydro-2H-benzo[e][1,2,4]thiadiazine-7-carboxamide 1,1-dioxide] | < 50%
11 | O=C(Nc1ccc(F)c(C(F)F)c1)c1ccc2c(c1)S(=O)(=O)N([C@H]1CC[C@H](O)CC1)C(=O)N2 [Example E131, N-(3-(difluoromethyl)-4-fluorophenyl)-2-((1r,4r)-4-hydroxycyclohexyl)-3-oxo-3,4-dihydro-2H-benzo[e][1,2,4]thiadiazine-7-carboxamide 1,1-dioxide] | > 50%
12 | O=C(Nc1cc(F)c(F)c(F)c1)c1ccc2c(c1)S(=O)(=O)N([C@H]1CC[C@@H](O)CC1)CN2 [Example E59, cis-2-(4-hydroxycyclohexyl)-N-(3,4,5-trifluorophenyl)-3,4-dihydro-2H-benzo[e][1,2,4]thiadiazine-7-carboxamide 1,1-dioxide] | < 50%

Same assay, conditions: Hepatitis B virus, compound at 1 µM, 96 hours, relative to non-treated reference, read-out: Anti HBV Activity (conc µM)

Row | SMILES | inhibition at 1 µM
13 | O=C1Nc2ccc(C(=O)Nc3cc(F)c(F)c(F)c3)cc2S(=O)(=O)N1 [Example E75, 3-oxo-N-(3,4,5-trifluorophenyl)-3,4-dihydro-2H-benzo[e][1,2,4]thiadiazine-7-carboxamide 1,1-dioxide] | < 50%
14 | CN1CNS(=O)(=O)c2cc(C(=O)Nc3cc(F)c(F)c(F)c3)ccc21 [Example E3, 4-methyl-N-(3,4,5-trifluorophenyl)-3,4-dihydro-2H-benzo[e][1,2,4]thiadiazine-7-carboxamide 1,1-dioxide] | < 50%
15 | CC(C)(C)OC(=O)N1CCN2C(COc3ccc(C(=O)Nc4cc(F)c(F)c(F)c4)cc3S2(=O)=O)C1 (stereo not shown) [Example E114, tert-butyl 8-((3,4,5-trifluorophenyl)carbamoyl)-3,4,12,12a-tetrahydrobenzo[b]pyrazino[1,2-e][1,4,5]oxathiazepine-2(1H)-carboxylate 6,6-dioxide] | < 50%
16 | O=C(Nc1cc(F)c(F)c(F)c1)c1ccc2c(c1)S(=O)(=O)NC(C(F)(F)F)N2 (stereo not shown) [Example E15, 3-(trifluoromethyl)-N-(3,4,5-trifluorophenyl)-3,4-dihydro-2H-benzo[e][1,2,4]thiadiazine-7-carboxamide1,1-dioxide] | < 50%
17 | O=C(Nc1ccc(F)c(F)c1)c1ccc2c(c1)S(=O)(=O)NC1(COC1)N2 [Example E11, N-(3,4-difluorophenyl)-2H,4H-spiro[benzo[e][1,2,4]thiadiazine-3,3'-oxetane]-7-carboxamide 1,1-dioxide] | < 50%
18 | O=C(Nc1cc(F)c(F)c(F)c1)c1ccc2c(c1)S(=O)(=O)NCN2 [Example E1, N-(3,4,5-trifluorophenyl)-3,4-dihydro-2H-benzo[e][1,2,4]thiadiazine-7-carboxamide 1,1-dioxide] | > 50%
19 | O=C(Nc1cc(F)c(F)c(F)c1)c1ccc2c(c1)S(=O)(=O)NC(c1cscn1)N2 (stereo not shown) [Example E41, 3-(thiazol-4-yl)-N-(3,4,5-trifluorophenyl)-3,4-dihydro-2H-benzo[e][1,2,4]thiadiazine-7-carboxamide 1,1-dioxide] | > 50%
20 | CC(C)OCCC1Nc2ccc(C(=O)Nc3cc(F)c(F)c(F)c3)cc2S(=O)(=O)N1 (stereo not shown) [Example E16, 3-(2-isopropoxyethyl)-N-(3,4,5-trifluorophenyl)-3,4-dihydro-2H-benzo[e][1,2,4]thiadiazine-7-carboxamide 1,1-dioxide] | > 50%
21 | O=C(Nc1ccc(F)c(F)c1)c1ccc2c(c1)S(=O)(=O)N1CCN2CC1 [Example E110, N-(3,4-difluorophenyl)-3,4-dihydro-2,5-ethanobenzo[f][1,2,5]thiadiazepine-8-carboxamide 1,1-dioxide] | < 50%
22 | CC(=O)N1CCN2C(COc3ccc(C(=O)Nc4cc(F)c(F)c(F)c4)cc3S2(=O)=O)C1 (stereo not shown) [Example E116, 2-acetyl-N-(3,4,5-trifluorophenyl)-1,2,3,4,12,12a-hexahydrobenzo[b]pyrazino[1,2-e][1,4,5]oxathiazepine-8-carboxamide 6,6-dioxide] | < 50%
23 | O=C(Nc1cc(F)c(F)c(F)c1)c1ccc2c(c1)S(=O)(=O)NC(c1ccc(Cl)nc1)N2 (stereo not shown) [Example E52, 3-(6-chloropyridin-3-yl)-N-(3,4,5-trifluorophenyl)-3,4-dihydro-2H-benzo[e][1,2,4]thiadiazine-7-carboxamide 1,1-dioxide] | > 50%
24 | O=C(Nc1cc(F)c(F)c(F)c1)c1ccc2c(c1)S(=O)(=O)NC(c1ccn[nH]1)N2 (stereo not shown) [Example E46, 3-(1H-pyrazol-5-yl)-N-(3,4,5-trifluorophenyl)-3,4-dihydro-2H-benzo[e][1,2,4]thiadiazine-7-carboxamide 1,1-dioxide] | > 50%
25 | CC(C)(C)OC(=O)N1CCC(C2Nc3ccc(C(=O)Nc4cc(F)c(F)c(F)c4)cc3S(=O)(=O)N2)CC1 (stereo not shown) [Example E31, tert-butyl 4-(1,1-dioxido-7-((3,4,5-trifluorophenyl)carbamoyl)-3,4-dihydro-2H-benzo[e] [1,2,4]thiadiazin-3-yl)piperidine-1-carboxylate] | > 50%
